# Assay results as given in patent US4556517A, “Carbapenem derivatives” (Shionogi & Co., Ltd., priority 1981, dated 1985).
# Columns and labels:
# [1] = target: β-lactamase of Enterobacter cloacae 92 (cephalosporinase type) (Enterobacter cloacae, UniProt P05364); experiment: β-Lactamase inhibitory test, cephalosporinase-type; assay type: biochemical; settings: 10 minutes preincubation, room temperature, minimum concentration to inhibit color change of indicator
# Protocol: *1 producing lactamase of cephalosporinasetype
# (§1) *3 The test compound was incubated with enzyme at room temperature for 10
# (§2) minutes prior to adding an indicator and the minimum concentration to
# (§3) inhibit color change was determined.
# Enterobacter cloacae 233 = experiment: Antibacterial Spectrum, agar dilution method; assay type: cell-based; settings: inoculum 10^6 cells/ml, sensitivity disc agar, 37° C. overnight, read-out: Minimum Inhibitory Concentration
# Protocol: (§4) Determined by agar dilution method;
# (§5) Inoculum size is 10^6 cells/ml;
# (§6) Cultivation in sensitivitydisc agar at 37° C. overnight.
# [2] = system: Klebsiella pneumoniae SRL-1; experiment: Antibacterial Spectrum, agar dilution method; assay type: cell-based; settings: SRL1, inoculum 10^6 cells/ml, sensitivity disc agar, 37° C. overnight, read-out: Minimum Inhibitory Concentration
# Protocol: as §4, §5, §6
# [3] = system: Pseudomonas aeruginosa ATCC 25619; experiment: Antibacterial Spectrum, agar dilution method; assay type: cell-based; settings: ATCC25619, inoculum 10^6 cells/ml, sensitivity disc agar, 37° C. overnight, read-out: Minimum Inhibitory Concentration
# Protocol: as §4, §5, §6
# Klebsiella sp. 363(R) = experiment: Antibacterial Spectrum, agar dilution method; assay type: cell-based; settings: inoculum 10^6 cells/ml, sensitivity disc agar, 37° C. overnight, read-out: Minimum Inhibitory Concentration
# Protocol: as §4, §5, §6
# Proteus mirabilis PR-4 = experiment: Antibacterial Spectrum, agar dilution method; assay type: cell-based; settings: PR4, inoculum 10^6 cells/ml, sensitivity disc agar, 37° C. overnight, read-out: Minimum Inhibitory Concentration
# Protocol: as §4, §5, §6
# [4] = system: Escherichia coli NIHJ JC-2; experiment: Antibacterial Spectrum, agar dilution method; assay type: cell-based; settings: NIHJJC2, inoculum 10^6 cells/ml, sensitivity disc agar, 37° C. overnight, read-out: Minimum Inhibitory Concentration
# Protocol: as §4, §5, §6
# [5] = system: Streptococcus pneumoniae I; experiment: Antibacterial Spectrum, agar dilution method; assay type: cell-based; settings: inoculum 10^6 cells/ml, sensitivity disc agar, 37° C. overnight, read-out: Minimum Inhibitory Concentration
# Protocol: as §4, §5, §6
# [6] = system: Staphylococcus aureus 209P JC-1; experiment: Antibacterial Spectrum, agar dilution method; assay type: cell-based; settings: inoculum 10^6 cells/ml, sensitivity disc agar, 37° C. overnight, read-out: Minimum Inhibitory Concentration
# Protocol: as §4, §5, §6
# [7] = system: β-lactamase of Klebsiella sp. 363 (penicillinase type); experiment: β-Lactamase inhibitory test, penicillinase-type; assay type: biochemical; settings: 10 minutes preincubation, room temperature, minimum concentration to inhibit color change of indicator
# Protocol: *2 producing lactamase of penicillinasetype
# as §1, §2, §3
# Chain of β-lactamase of Enterobacter cloacae 92 (cephalosporinase type) (P05364 21-381): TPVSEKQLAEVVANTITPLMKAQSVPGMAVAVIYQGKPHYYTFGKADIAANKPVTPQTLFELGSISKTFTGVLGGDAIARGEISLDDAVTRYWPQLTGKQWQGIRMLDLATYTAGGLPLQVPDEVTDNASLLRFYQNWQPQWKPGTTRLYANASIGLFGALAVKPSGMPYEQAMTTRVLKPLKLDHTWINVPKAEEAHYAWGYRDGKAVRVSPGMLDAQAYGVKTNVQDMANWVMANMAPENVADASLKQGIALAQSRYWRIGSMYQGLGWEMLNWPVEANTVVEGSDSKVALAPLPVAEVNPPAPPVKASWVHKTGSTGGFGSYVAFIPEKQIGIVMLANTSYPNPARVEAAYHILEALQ
Compound,Minimum Effective Concentration [1] [µg/mL],MIC (Enterobacter cloacae 233) [µg/mL],MIC [2] [µg/mL],MIC [3] [µg/mL],MIC (Klebsiella sp. 363(R)) [µg/mL],MIC (Proteus mirabilis PR-4) [µg/mL],MIC [4] [µg/mL],MIC [5] [µg/mL],MIC [6] [µg/mL],Minimum Effective Concentration [7] [µg/mL]
"CC(OS(=O)(=O)O)C1C(=O)N2C(C(=O)O)=C(SCC(=O)O)CC12 (stereo not drawn) [Deoxy PLM B, 3-Carboxymethylthio-6-(1-hydroxysulfonyloxyethyl)-7-oxo-1-azabicyclo[3.2.0]-hept-2-ene-2-carboxylic acid]",0.002,6.25,0.78,> 100,1.56,0.78,1.56,1.56,3.13,0.063
"CC(OS(=O)(=O)O)C1C(=O)N2C(C(=O)O)=C(SC(O)O)CC12 (stereo not drawn) [Deoxy PLM C, 3-dihydroxymethylthio-6-(1-hydroxysulfonyloxyethyl)-7-oxo-1-azabicyclo[3.2.0]-hept-2-ene-2-carboxylic acid]",0.002,3.13,0.78,> 100,0.78,0.78,0.78,0.2,0.78,0.125
"CC(OS(=O)(=O)O)C1C(=O)N2C(C(=O)O)=C([S+]([O-])CO)CC12 (stereo not drawn) [Dihydro PLM C, 3-hydroxymethylsulfinyl-6-(1-hydroxysulfonyloxyethyl)-7-oxo-1-azabicyclo[3.2.0]-hept-2-ene-2-carboxylic acid]",0.008,> 100,25,> 100,12.5,25,12.5,3.1,12.5,0.004
